Experimental data as given in patent publication US7081349B1 (The General Hospital Corporation, priority 1994, dated 2006).
Read-outs that look alike come from different tables or passages of the source.

Legend:
[1] = target: T1, sheep high-affinity melatonin 1a receptor (Ovis aries, UniProt P48040); assay: 125I-melatonin saturation and competition binding, whole COS-7 cells transfected with sheep receptor cDNA
T1 construct: expressed in transfected cells; host or cells: COS-7 cells, transient, pcDNAI, DEAE-dextran
T1 sequence (P48040 whole entry): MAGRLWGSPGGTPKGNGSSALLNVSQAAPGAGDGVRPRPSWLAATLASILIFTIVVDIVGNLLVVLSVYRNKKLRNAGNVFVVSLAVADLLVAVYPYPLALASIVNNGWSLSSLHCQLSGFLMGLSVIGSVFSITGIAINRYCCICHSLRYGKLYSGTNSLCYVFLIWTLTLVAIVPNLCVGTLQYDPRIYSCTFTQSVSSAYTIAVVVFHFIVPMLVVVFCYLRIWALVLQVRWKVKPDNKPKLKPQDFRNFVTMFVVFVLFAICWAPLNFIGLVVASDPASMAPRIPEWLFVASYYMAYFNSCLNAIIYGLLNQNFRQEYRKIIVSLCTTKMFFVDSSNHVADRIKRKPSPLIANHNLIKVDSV
Text: (§1) Data shown are representative of three experiments. […] The data shown are representative of at least three experiments.
For ligand binding studies, the sheep receptor cDNA (SEQ ID NO:3) in pcDNAI was introduced into COS-7 cells using the DEAE-dextran method (Cullen, B. R. Methods Enzymol. (1987) 152:684-704). Approximately two to three days after transfection, cell culture medium was removed, the cultures dishes were washed with PBS, and the cells were harvested.
The cells were then pelleted (2500 rpm; 10 min, 4° C.) and stored at −80° C. Whole cell binding studies were performed by thawing the cells and resuspending them in binding buffer (50 mM Tris-HCl, pH 7.4, with 5 mM MgCl2) at a concentration of 200-500 μg protein/ml. The cell suspension was incubated with ^125I-Mel with or without drugs in a total reaction volume of 0.2 ml binding buffer; the suspension as incubated in a shaker bath for 1.5 hr at 25° C. All determinations were done in either duplicate or triplicate. Protein measurements were performed using the Pierce BCA Protein Assay. Binding data were analyzed by computer using the LIGAND Program of Munson and Rodbard (1980).

[2] = target: T2, Xenopus high-affinity melatonin receptor (Xenopus laevis, UniProt P49219); assay: 125I-melatonin saturation and competition binding, whole COS-7 cells transiently expressing Xenopus receptor cDNA; design: expressed in transfected cells; host or cells: COS-7 cells, transient, pcDNAI
T2 sequence (P49219 1-420): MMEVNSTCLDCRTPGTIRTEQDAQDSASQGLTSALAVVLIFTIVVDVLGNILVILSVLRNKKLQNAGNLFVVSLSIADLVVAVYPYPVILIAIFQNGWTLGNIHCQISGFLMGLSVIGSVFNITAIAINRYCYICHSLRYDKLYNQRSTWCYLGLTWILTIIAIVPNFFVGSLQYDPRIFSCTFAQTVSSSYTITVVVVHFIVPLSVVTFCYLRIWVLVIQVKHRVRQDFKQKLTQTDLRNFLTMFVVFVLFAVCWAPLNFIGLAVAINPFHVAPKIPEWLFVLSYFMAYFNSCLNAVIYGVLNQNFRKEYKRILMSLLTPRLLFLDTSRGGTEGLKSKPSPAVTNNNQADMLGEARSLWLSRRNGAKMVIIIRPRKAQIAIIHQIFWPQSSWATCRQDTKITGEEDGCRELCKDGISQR
Protocol: Three days after transfection, medium was removed, the culture dishes were washed with PBS, and the cells were harvested. The cells were then pelleted (2500 rpm; 10 min, 4° C.) and stored at −80° C. Whole cell binding studies were performed by thawing the cells and resuspending them in binding buffer (50 mM Tris-HCl, pH 7.4, with 5 mM MgCl2) at a concentration of 456 μg protein 1 ml. […] Protein determinations were performed using the Pierce BCA Protein Assay (The Pierce Chemical Co., Rockford, Ill.). Binding data were analyzed by computer using the LIGAND Program of Munson and Rodbard ((1980) supra).
(§2) The Bmax value using the whole cell binding assay was 67±7 fmol/mg of protein.

human Mel-1b receptor = target: T3, human Mel-1b receptor (Homo sapiens, UniProt P49286); assay: 125I-Mel saturation and competition binding, membranes of COS-1 cells transfected with human Mel-1b receptor cDNA; conditions: for Ki: 200 pM 125I-Mel, mean ± SE of 3-5 experiments; for Ratio (Mel-1a/Mel-1b): ratio of Ki values; for inhibition of specific 125I-Mel binding: micromolar concentrations, human Mel-1b
T3 construct: expressed in transfected cells; host or cells: COS-1 cells, transient, pcDNA3; crude membrane homogenates
T3 sequence (P49286 1-362): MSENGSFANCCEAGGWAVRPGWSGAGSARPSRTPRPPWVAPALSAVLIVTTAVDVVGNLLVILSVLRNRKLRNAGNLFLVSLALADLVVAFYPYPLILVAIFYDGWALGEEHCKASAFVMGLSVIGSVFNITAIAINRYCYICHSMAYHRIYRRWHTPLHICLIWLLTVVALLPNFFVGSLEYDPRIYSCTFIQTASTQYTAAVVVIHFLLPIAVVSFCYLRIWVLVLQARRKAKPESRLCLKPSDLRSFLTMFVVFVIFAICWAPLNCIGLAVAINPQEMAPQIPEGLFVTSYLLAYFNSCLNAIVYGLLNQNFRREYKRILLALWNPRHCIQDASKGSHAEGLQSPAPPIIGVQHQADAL
Protocol: Inset: Scatchard plot of saturation data. […] Data shown are representative of five experiments.
(§3) The data shown are mean values of three to five experiments for each drug.
Binding and pharmacological properties of the human Mel-1b receptor were examined by transiently expressing the receptor cDNA in COS-1 cells.
(§4) Expression studies were performed as follows. COS-1 and NIH 3T3 cells were grown as monolayers in Dulbeccols modified Eagle's medium (DMEM) supplemented with 10% fetal calf serum, penicillin (50 U/ml), and streptomycin (50 μg/ml), in 5% CO2 at 37° C. […] Three days after transfection, medium was removed, and the dishes were washed with PBS. The cells were harvested in Hank's balanced salt solution and centrifuged (1400×g; 10 min, 4° C.). The resultant pellets were stored at −80° C. Crude membrane homogenates were prepared by thawing the pellets on ice and resuspending them in TME buffer (pH 7.4) consisting of 50 mM Tris base, 12.5 mM MgCl2, 1 mM EDTA, and supplemented with 10 μg/ml aprotinin and leupeptin, and 100 μM phenylmethylsulfonylfluoride. The cells were then homogenized using a dounce homogenizer and centrifuged (45,000×g; 15 min at 4° C.). The resulting pellet was resuspended with a dounce homogenizer in TME and frozen at […] in aliquots.
(§5) Incubations were initiated by the addition of the membrane preparation and were conducted at 37° C. for 60 min. […] All determinations were done in either duplicate or triplicate.
(§6) Protein measurements were performed by the method of Bradford (Bradford, M. M. (1976) Anal. Biochem. 72, 248-254), using bovine serum albumin as the standard.
(§7) For comparison, binding and pharmacology of COS-1 cells transiently expressing the human Mel-1a receptor were assessed in parallel.

human Mel-1a receptor = target: T4, human Mel-1a receptor (Homo sapiens, UniProt P48039); assay: 125I-Mel saturation and competition binding, membranes of COS-1 cells transfected with human Mel-1a receptor cDNA; conditions: 100 pM 125I-Mel, mean ± SE of 3-5 experiments
T4 construct: expressed in transfected cells; host or cells: COS-1 cells, transient, pcDNA3; crude membrane homogenates
T4 sequence (P48039 whole entry): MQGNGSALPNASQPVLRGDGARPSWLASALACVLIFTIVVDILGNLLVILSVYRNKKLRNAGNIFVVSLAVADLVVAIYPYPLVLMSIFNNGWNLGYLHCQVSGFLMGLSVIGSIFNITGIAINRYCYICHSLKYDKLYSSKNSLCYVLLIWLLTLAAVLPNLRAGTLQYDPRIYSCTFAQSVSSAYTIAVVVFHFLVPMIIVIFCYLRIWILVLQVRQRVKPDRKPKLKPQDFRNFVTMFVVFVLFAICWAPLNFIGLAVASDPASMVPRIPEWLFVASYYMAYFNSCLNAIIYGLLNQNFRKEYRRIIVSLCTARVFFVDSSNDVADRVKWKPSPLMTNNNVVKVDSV
Protocol: as §3, §4, §5, §6, §7

[3] = target: T5, human high-affinity melatonin 1a receptor (Homo sapiens, UniProt P48039); assay: 125I-melatonin saturation and competition binding, COS-7 cells transfected with complete human Mel-1a receptor cDNA; conditions: 100 pM 125I-Mel, one-site model
T5 construct: expressed in transfected cells; host or cells: COS-7 cells, transient, pcDNAI
T5 sequence (P48039 whole entry): as above
Text: as §1

human SCN = conditions: quantitative 125I-Mel autoradiography, Reppert et al. 1988; cited from earlier work
[4] = test system: mock-transfected COS-7 cells; assay: 125I-melatonin binding in mock-transfected COS-7 cells
Text: as §2

sheep Mel-1a receptor = target: T6, sheep Mel-1a receptor (Ovis aries, UniProt P48040); assay: Inhibition of forskolin-stimulated cAMP accumulation in NIH 3T3 cells stably transfected with sheep receptor cDNA; assay type: cell-based; conditions: for effect of pertussis toxin pretreatment on melatonin inhibition of forskolin-stimulated cAMP: PTX 100 ng/ml, 18 hours, 1 μM melatonin, 10 μM forskolin
T6 construct: expressed in transfected cells
T6 sequence (P48040 whole entry): as the sequence (P48040 whole entry) above
Protocol: The 100% value is the mean cAMP value induced with 10 μM forskolin. […] Cells were preincubated with either vehicle or pertussis toxin for 18 hours (PTX: 100 ng/ml; pertussis toxin was purchased from List, Campbell, Calif.). […] Data are the mean plus standard deviation for 3 plates for each treatment.
Transformed NIH 3T3 cells were plated on 35 mm dishes. After forty-eight hours, the cells were washed twice with DMEM, and then incubated with or without drugs (diluted in DMEM) for 10 min at 37° C. At the end of treatment, the medium was aspirated and 1 ml of 50 mM acetic acid was added. The cells were collected, transferred to an Eppendorf tube, boiled for 5 min, and centrifuged (13,750 rpm for 15 min). The supernatant was collected and assayed for cAMP. All determinations were done in triplicate. Cyclic AMP levels were determined in duplicate by radioimmunoassay by standard techniques.

mouse Mel-1a receptor = mouse Mel-1a receptor (Mus musculus, UniProt Q61184, F119L/I348L/K349P/L29M/L347F); conditions: COS-7 cells; comparable to sheep and human Mel-1a receptors
Sequence of mouse Mel-1a receptor (Q61184 whole entry L29M/F119L/L347F/I348L/K349P): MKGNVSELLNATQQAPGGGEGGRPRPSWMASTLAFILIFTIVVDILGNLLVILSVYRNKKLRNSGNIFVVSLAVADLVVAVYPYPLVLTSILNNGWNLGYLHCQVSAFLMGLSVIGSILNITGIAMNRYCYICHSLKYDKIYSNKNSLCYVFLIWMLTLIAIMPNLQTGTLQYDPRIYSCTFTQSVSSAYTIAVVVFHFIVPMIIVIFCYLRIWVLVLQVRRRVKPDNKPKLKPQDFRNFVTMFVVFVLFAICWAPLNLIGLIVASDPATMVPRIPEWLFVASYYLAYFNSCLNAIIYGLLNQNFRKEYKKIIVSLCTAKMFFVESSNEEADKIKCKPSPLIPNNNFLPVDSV

[5] = target: T2, Xenopus high-affinity melatonin receptor; assay: Inhibition of forskolin-stimulated cAMP accumulation in CHO cells stably transfected with Xenopus receptor cDNA; assay type: cell-based; design: expressed in transfected cells
Protocol: The 100% value is the mean cAMP value induced with 10 μM forskolin.
Transformed CHO cells were plated on 35 mm culture dishes. After 48 hours, the cells were washed twice with Ham's F-12 (Life Technologies, Bethesda, Md.). […] Following treatment, the medium was aspirated and 1 ml of 50 mM acetic acid was added to the culture dish. The cells were collected, transferred to an Eppendorf tube, boiled for 5 min, and centrifuged (13,750 rpm for 15 min). The supernatant was collected and assayed for cAMP. All determinations were performed in triplicate. Cyclic AMP levels were determined in duplicate by radioimmunoassay (New England Nuclear, Boston, Mass.).

[6] = 100 pM 125I-Mel, COS-7 cells, sheep receptor, one-site model, read-out: Ki, competition for 125I-Mel binding
[7] = 100 pM 125I-melatonin, COS-7 cells, Xenopus receptor, representative of three experiments, read-out: Ki, competition for 125I-melatonin binding

## COc1ccc2[nH]c(I)c(CCNC(C)=O)c2c1 [2-iodomelatonin]
[1]
  Ki: 0.037 nM
[2]
  Ki: 0.11 nM

## COc1ccc2[nH]c(-c3ccccc3)c(CCNC(C)=O)c2c1 [2-phenylmelatonin]
Human Mel-1b receptor
  Ki: 0.26 ± 0.06 nM
  Ratio (Mel-1a/Mel-1b): 0.8
Human Mel-1a receptor
  Ki: 0.21 ± 0.06 nM

## NCCc1c[nH]c2ccc(O)cc12 [5-HT, 5-hydroxytryptamine]
Human Mel-1b receptor
  inhibition of specific 125I-Mel binding: did not inhibit
[1]; [6]
  Ki: > 100000 nM
[2]; [7]
  Ki: > 100000 nM
[3]
  Ki: > 100000 nM
Human SCN
  affinity: very low affinity
Human Mel-1a receptor
  Ki: > 10000 nM

## COc1cc2c(CCNC(C)=O)c[nH]c2cc1Cl [6-chloromelatonin]
[1]; [6]
  Ki: 0.25 nM
[2]; [7]
  Ki: 3 nM
Human SCN
  affinity: high affinity

## COc1cc2c(CCNC(C)=O)c[nH]c2cc1O [6-hydroxymelatonin]
[1]; [6]
  Ki: 3 nM
[2]; [7]
  Ki: 20 nM
[3]
  Ki: 2 nM

## CC(=O)NCCc1c[nH]c2ccc(O)cc12 [NAS, N-acetyl-5-hydroxytryptamine]
Human Mel-1b receptor
  Ki: 595 ± 127 nM
  Ratio (Mel-1a/Mel-1b): 1.6
[1]; [6]
  Ki: 140 nM
[2]; [7]
  Ki: 2000 nM
[3]
  Ki: 170 nM
Human Mel-1a receptor
  Ki: 986 ± 137 nM

## COc1ccc2[nH]c(I)c(CCNC(C)=O)c2c1 [^125I-melatonin, 2-[^125I]-iodomelatonin]
[1]; FIG. 14a inset, COS-7 cells, sheep receptor, representative experiment, read-out: Ki value for the sheep receptor from Scatchard plot of saturation data
  Ki: 0.036 nM
[2]; saturation 5 to 1280 pM, COS-7 cells, Xenopus receptor, n=3 experiments, read-out: Kd of 125I-melatonin (Scatchard analysis)
  Kd: 0.063 nM

## COc1ccc2[nH]c([125I])c(CCNC(C)=O)c2c1 [^125I-melatonin, 2-[^125I]-iodomelatonin]
[4]
  specific binding of 125I-melatonin: No specific binding

## COc1ccc2[nH]cc(CCNC(C)=O)c2c1 [melatonin]
[2]; [7]
  Ki: 1.3 nM
Human SCN
  affinity: high affinity
Sheep Mel-1a receptor; melatonin 1 μM, NIH 3T3 cells with pcDNAI NEO lacking the sheep receptor cDNA
  inhibition of forskolin-stimulated cAMP accumulation in vector-only cells: did not inhibit
Sheep Mel-1a receptor; stably transfected NIH 3T3 lines, sheep receptor
  effect on basal cAMP levels: did not alter basal cAMP levels
Mouse Mel-1a receptor
  binding affinity: high affinity
[5]; CHO, read-out: maximal inhibition of the mean forskolin-stimulated cAMP concentration
  inhibition at 0.01 µM: 68%
[5]; manual curve fitting of FIG. 12, 10 μM forskolin, CHO cells, Xenopus receptor
  IC50: ~0.8 nM
[5]; melatonin 1×10^−6 M, CHO cells stably transfected with vector lacking the Xenopus cDNA
  inhibition of forskolin-stimulated cAMP increase in vector-only cells: did not inhibit
[5]; melatonin alone 1×10^−6 M, stably transfected CHO cells
  effect on basal cAMP levels: not to alter basal cAMP levels

## COc1cc2nc(N3CCN(C(=O)c4ccco4)CC3)nc(N)c2cc1OC [prazosin]
Human Mel-1b receptor
  inhibition of specific 125I-Mel binding: did not inhibit

## Pertussis toxin
Sheep Mel-1a receptor
  effect of pertussis toxin pretreatment on melatonin inhibition of forskolin-stimulated cAMP: completely abolished
Sheep Mel-1a receptor; listed as pertussis toxin
  effect of pertussis toxin pretreatment on melatonin inhibition of forskolin-stimulated cAMP: blocks
